Data: US8871946B2, “Benzimidazole-4-carboxamide derivatives, their preparation methods, pharmaceutical compositions and their uses” (Zhejiang Medicine Co., Ltd. Xinchang Pharmaceutical Factory, priority 2009, dated 2014)
In brackets after ≈: the same amount, converted by molar mass.

System: coxsackie B3 viruses
Assay: Measures of anti-coxsackie B3 viruses activity of the compounds in Vero cells
Format: cell-based
Details: half inhibitory concentration for viruses
Text: Measures of Anti-Coxsackie B3 Viruses Activity of the Compounds The products are applied for measures of antivirus properties of Vero cells. Refer to the results of Table 3: datum of anti-coxsackie B3 viruses activities of some compounds. […] IC50 indicates half inhibitory concentration for viruses. RBV indicates triazole nucleoside, is also called ribavirin, virazole.

Row | Compound | IC50 [µg/mL]
1 | CN(C)c1ccnc(-c2nc3c(C(=O)Nc4ccc(N)cc4)cccc3[nH]2)c1 [2-(4-dimethylaminopyridyl)-1H-benzimidazole-4-(N-p-aminophenyl)amide] | 10.2 (≈ 27.4 µM)
2 | Nc1ncnc(Cl)c1-c1nc2c(C(=O)NC(CO)C(O)c3ccc([N+](=O)[O-])cc3)cccc2[nH]1 (stereo not drawn) [(L)-2-(4-amino-6-chloro-5-pyrimidinyl)-1H-benzimidazole-4-[N-(1-hydroxymethyl-2-p-nitrophenylhydroxyethyl)]amide] | 17.2 (≈ 35.5 µM)
3 | O=C(Nc1ccccc1F)c1cccc2[nH]c(-c3ccc([N+](=O)[O-])s3)nc12 [2-(5-nitro-2-thienyl)-1H-benzimidazole-4-(N-(2-fluorophenyl))-amide] | >9.25
4 | CC(NC(=O)c1cccc2[nH]c(-c3ccccn3)nc12)C(O)c1ccc(Cl)cc1 (stereo not drawn) [2-(2-pyridyl)-1H-benzimidazole-4-[N-(1-methyl-2-p-chlorophenylhydroxyethyl)]amide] | 4.115 (≈ 10.1 µM)
5 | Cc1nc(-c2nc3c(C(=O)Nc4ccccc4F)cccc3[nH]2)sc1N [2-(4-methyl-5-aminothiazolyl)-1H-benzimidazole-4-(N-o-fluorophenyl)amide] | 10.2 (≈ 27.8 µM)
6 | O=C(NC(CO)C(O)c1ccc([N+](=O)[O-])cc1)c1cccc2[nH]c(-c3c[nH]c4ccccc34)nc12 [(L-)2-(3-indolyl)-1H-benzimidazole-4-[N-(1-hydroxymethyl-2-p-nitrophenylhydroxyethyl)]amide] | 9.6 (≈ 20.4 µM)
7 | Cc1ccc(-c2nc3c(C(=O)Nc4ccccc4O)cccc3[nH]2)s1 [2-(5-methy-2-thienyl)-1H-benzimidazole-4-(N-o-hydroxyphenyl)amide] | 18.5 (≈ 52.9 µM)
8 | O=C(NC(CO)C(O)c1ccc([N+](=O)[O-])cc1)c1cccc2[nH]c(-c3ccccn3)nc12 (stereo not drawn) [(L)-2-(2-pyridyl)-1H-benzimidazole-4-[N-(1-hydroxymethyl-2-p-nitrophenylhydroxyethyl)]amide] | 1.76 (≈ 4.06 µM)
9 | O=C(NC(CO)C(O)c1ccc([N+](=O)[O-])cc1)c1cccc2[nH]c(-c3cc(O)c(O)c(O)c3)nc12 (stereo not drawn) [(L)-2-(3,4,5-trihydroxyphenyl)-1H-benzimidazole-4-[N-(1-hydroxymethyl-2-p-nitrophenylhydroxyethyl)]amide] | 10.2 (≈ 21.2 µM)
10 | Cc1cc(C)c(-c2nc3c(C(=O)NC(CO)C(O)c4ccc([N+](=O)[O-])cc4)cccc3[nH]2)[nH]1 (stereo not drawn) [(L)-2-(3,5-dimethyl-2-pyrrolyl)-1H-benzimidazole-4-[N-(1-hydroxymethyl-2-p-nitrophenylhydroxyethyl)]amide] | 8.6 (≈ 19.1 µM)
11 | O=C(NC(CO)C(O)c1ccc([N+](=O)[O-])cc1)c1cccc2[nH]c(C3CCCCN3)nc12 (stereo not drawn) [(L)-2-(2-piperidinyl)-1H-benzimidazole-4-[N-(1-hydroxymethyl-2-p-nitrophenylhydroxyethyl)]amide] | 17.2 (≈ 39.1 µM)
12 | Nc1ccc(NC(=O)c2cccc3[nH]c(-c4cnc(-c5ccccc5)nc4)nc23)cc1 [2-(2-phenyl-5-pyrimidinyl)-1H-benzimidazole-4-(N-p-aminophenyl)amide] | 15.2 (≈ 37.4 µM)
13 | Cn1cccc1-c1nc2c(C(=O)NC(CO)C(O)c3ccc([N+](=O)[O-])cc3)cccc2[nH]1 (stereo not drawn) [(L)-2-(N-methyl-2-pyrrolyl)-1H-benzimidazole-4-[N-(1-hydroxymethyl-2-p-nitrophenylhydroxyethyl)]amide] | 11.1 (≈ 25.5 µM)
14 | CC(NC(=O)c1cccc2[nH]c(-c3ccc([N+](=O)[O-])s3)nc12)C(O)c1ccc(Cl)cc1 (stereo not drawn) [2-(5-nitro-2-thienyl)-1H-benzimidazole-4-(N-(1-methyl-2-p-chlorophenylhydroxyethyl))-amide] | 7.12 (≈ 15.6 µM)
15 | Cc1nc(-c2nc3c(C(=O)NC(CO)C(O)c4ccc([N+](=O)[O-])cc4)cccc3[nH]2)sc1N (stereo not drawn) [(L)-2-(4-methyl-5-aminothiazolyl)-1H-benzimidazole-4-[N-(1-hydroxymethyl-2-p-nitrophenylhydroxyethyl)]amide] | 8.9 (≈ 19 µM)
16 | Nc1ccc(NC(=O)c2cccc3[nH]c(-c4cnccn4)nc23)cc1 [2-(2-pyrazinyl)-1H-benzimidazole-4-(N-p-aminophenyl)amide] | 4.2 (≈ 12.7 µM)
17 | Nc1ccc(NC(=O)c2cccc3[nH]c(N4CCNCC4)nc23)cc1 [2-N-piperazinyl-1H-benzimidazole-4-(N-p-aminophenyl)amide] | 6.3 (≈ 18.7 µM)
18 | Nc1ccc(NC(=O)c2cccc3[nH]c(-c4ncccn4)nc23)cc1 [2-(2-pyrimidinyl)-1H-benzimidazole-4-(N-p-aminophenyl)amide] | 9.8 (≈ 29.7 µM)
19 | 2-(2-N-methyl-4-N- methylpiperazinyl)-1H- benzimidazole-4-(N-o- fluorophenyl)amide | 8.9
20 | Nc1ccc(NC(=O)c2cccc3[nH]c(-c4c[nH]c5ccccc45)nc23)cc1 [2-(3-indolyl)-1H-benzimidazole-4-(N-p-aminophenyl)amide] | 10.8 (≈ 29.4 µM)
21 | Nc1ccc(NC(=O)c2cccc3[nH]c(-c4cccnn4)nc23)cc1 [2-(3-pyridazinyl)-1H-benzimidazole-4-(N-p-aminophenyl)amide] | 10.2 (≈ 30.9 µM)
